Target: T1, MASTL (Homo sapiens, UniProt Q96GX5)
T1 construct: recombinant GST-tagged-MASTL
T1 sequence (Q96GX5 1-879): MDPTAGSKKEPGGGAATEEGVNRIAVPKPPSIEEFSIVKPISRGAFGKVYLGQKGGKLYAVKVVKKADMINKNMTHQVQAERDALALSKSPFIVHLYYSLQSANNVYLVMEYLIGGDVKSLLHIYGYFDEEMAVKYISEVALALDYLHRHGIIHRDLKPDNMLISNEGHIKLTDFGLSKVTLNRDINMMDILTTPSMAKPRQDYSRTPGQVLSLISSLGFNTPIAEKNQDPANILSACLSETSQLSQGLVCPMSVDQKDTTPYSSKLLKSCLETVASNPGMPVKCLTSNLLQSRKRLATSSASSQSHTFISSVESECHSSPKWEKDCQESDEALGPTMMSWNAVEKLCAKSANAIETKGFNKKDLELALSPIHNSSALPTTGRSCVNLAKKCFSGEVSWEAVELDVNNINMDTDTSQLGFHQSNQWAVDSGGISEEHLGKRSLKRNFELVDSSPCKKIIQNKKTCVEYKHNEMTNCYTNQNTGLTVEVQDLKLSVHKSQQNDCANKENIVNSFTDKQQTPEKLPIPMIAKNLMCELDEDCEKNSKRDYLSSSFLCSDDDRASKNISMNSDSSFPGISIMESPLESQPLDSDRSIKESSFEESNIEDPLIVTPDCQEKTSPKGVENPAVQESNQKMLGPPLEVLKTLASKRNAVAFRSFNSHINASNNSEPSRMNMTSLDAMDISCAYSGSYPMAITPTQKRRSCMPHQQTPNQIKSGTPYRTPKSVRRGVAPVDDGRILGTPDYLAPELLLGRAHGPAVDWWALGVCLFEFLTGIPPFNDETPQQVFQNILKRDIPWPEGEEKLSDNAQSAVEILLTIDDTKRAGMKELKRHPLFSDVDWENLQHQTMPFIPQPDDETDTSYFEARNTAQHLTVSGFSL
Test: in vitro kinase assay with recombinant GST-MASTL and His-ENSA substrate; also HTRF KinEASE and ADP-Glo
Type: biochemical

N#CCc1ccc(Nc2nc(Nc3cc(C4CC4)[nH]n3)c3ccccc3n2)cc1 [#248, 2-(4-((4-((5-cyclopropyl-1H-pyrazol-3-yl)amino)quinazolin-2-yl)amino)phenyl)acetonitrile]
IC50: 37.4 nM

— paper PMC8308786, “Discovery and Characterization of a Novel MASTL Inhibitor MKI-2 Targeting MASTL-PP2A in Breast Cancer Cells and Oocytes” (Pharmaceuticals, 2021)
